“Also recorded” adds a separate entry of the source. Read-outs that look alike come from different tables or passages of the source.
Columns and labels:
[1] = biological target: T1, unphosphorylated recombinant human p38α (Homo sapiens, UniProt Q16539); test: Differential scanning fluorimetry (DSF), binding to p38α
T1 construct: made in house; host or cells: E. coli BL21

ERK2 = ERK2 (Homo sapiens, UniProt P28482); test: DSF, binding to ERK2
p38β [2] = biological target: T2, p38β (Homo sapiens, UniProt Q15759); test: DSF, binding to p38β; conditions: DSF melting temperature, concentration series
T2 construct: HA (N); made in house; host or cells: E. coli BL21
T2 sequence (Q15759 whole entry): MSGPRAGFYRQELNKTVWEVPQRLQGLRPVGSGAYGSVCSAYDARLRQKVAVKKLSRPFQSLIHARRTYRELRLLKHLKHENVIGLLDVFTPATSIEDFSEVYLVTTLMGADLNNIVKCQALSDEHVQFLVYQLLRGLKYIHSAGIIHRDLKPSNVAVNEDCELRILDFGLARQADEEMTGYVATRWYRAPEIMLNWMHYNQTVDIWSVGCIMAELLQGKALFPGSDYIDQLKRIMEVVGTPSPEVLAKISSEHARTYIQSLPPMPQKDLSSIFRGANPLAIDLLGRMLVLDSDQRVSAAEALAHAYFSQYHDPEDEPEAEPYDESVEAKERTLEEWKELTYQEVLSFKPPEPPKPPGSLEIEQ

[3] = biological target: T3, p38α mutant (R49K/HL107-8TF/K165R) (Homo sapiens, UniProt Q16539, H107T/K165R/L108F/R49K); test: DSF, binding to target-disrupted p38α mutant; conditions: compared with wild-type p38α
T3 construct: made in house; host or cells: E. coli BL21
T3 sequence (Q16539 whole entry R49K/H107T/L108F/K165R): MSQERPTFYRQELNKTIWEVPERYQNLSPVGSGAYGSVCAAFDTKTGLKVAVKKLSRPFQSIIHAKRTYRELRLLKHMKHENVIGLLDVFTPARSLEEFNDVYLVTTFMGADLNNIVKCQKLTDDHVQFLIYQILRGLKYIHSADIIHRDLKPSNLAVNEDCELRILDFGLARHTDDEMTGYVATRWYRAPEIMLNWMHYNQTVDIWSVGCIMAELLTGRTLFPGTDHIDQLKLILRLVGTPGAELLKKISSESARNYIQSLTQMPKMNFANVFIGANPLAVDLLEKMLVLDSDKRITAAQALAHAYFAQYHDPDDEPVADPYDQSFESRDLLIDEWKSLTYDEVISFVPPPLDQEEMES

HMVECL monolayers = test: Endothelial permeability assay (10 kDa dextran flux); type: cell-based, human; conditions: for reduction of TNFα/hyperthermia-induced permeability increase: HMVECL, 10 kDa dextran, TNFα and 39.5° C. for 6 h
Description: Endothelial permeability assay: Permeability of HMVECL monolayers was assessed by measuring transendothelial flux of 10 kDa dextran conjugated to Cascade blue fluorescent dye for 30 min at 37° C. in Matrigel-coated 3 μm pore size Transwell plates.

[4] = tested on: IL-8-directed neutrophil TEM through HMVECLs; test: Neutrophil transendothelial migration (TEM) assay; type: cell-based, human; conditions: HMVECLs preincubated at 39.5° C. for 6 h
HMVECLs = test: Cytotoxicity assay (MTS, LDH release); type: cell-based, human; conditions: 100 μM for 48 h
Description: Cytotoxicity of HMVECL exposed to 10-100 μM of each compound is analyzed by MTS assay (Promega), LDH release (Promega), and immunoblotting for activated caspase-3 (Cell Signaling).
Cytotoxicity assay: Cytotoxicity was monitored in parallel HMVEC-L monolayers established in 96-well culture plates using a colorimetric assay that measured reduction of 3-(4,5-dimethylthiazol-2-yl)-5-(3-carboxymethoxyphenyl)-2-(4-sulfophenyl)-2H-tetrazolium (MTS) to a formazan dye (CellTiter 96™; Promega; Madison, WI) according to the manufacturer's protocol and quantifying product formation by measuring absorption at 490 nm.

[5] = tested on: LPS-induced cytokine expression in PMA-differentiated THP1 cells; test: LPS-induced cytokine expression, PCR-based cytokine array; type: cell-based, human; conditions: 25 μM SB203580 or 10, 25, or 100 μM UM101
[6] = tested on: p38-dependent phosphorylation of MK2 and Stat-1 in HeLa cells; test: Inhibition of substrate phosphorylation (immunoblot); type: cell-based, human; conditions: 10 μM SB203580 or 50 μM UM101 for 30 min
Text: Cell extracts prepared in RIPA buffer containing protease and phosphatase inhibitors were resolved by SDS-PAGE, transferred to PVDF membrane, blocked with 5% nonfat dry milk, probed with primary antibodies against phosphorylated MK2 and Stat-1, and total p38α as a loading control. Bands were detected using secondary antibodies conjugated to infrared fluorophores and infrared fluorescence imaging (Odyssey; LICOR).

p38α = biological target: T4, p38α (Homo sapiens, UniProt Q16539); test: STD-NMR, binding to p38α; conditions: 200 μM UM101, 5 μM p38 protein
T4 construct: made in house; host or cells: E. coli BL21
T4 sequence (Q16539 whole entry): as the sequence (Q16539 whole entry R49K/H107T/L108F/K165R) above, with K49R, T107H, F108L, R165K counted along it
Description: (§1) Spectra were recorded on an Agilent DD2 500-MHz spectrometer equipped with a 5-mm inverse HFCN probe head at 300 K. During each transient, the protein was saturated with a series of 58 […]-shaped pulses (50 ms, 1 ms delay between pulses) using the vendor-supplied STD-ES pulse sequence, for a total saturation time of 3 seconds. The on-resonance irradiation of protein was done at 0.5 ppm and off-resonance irradiation at 30 ppm. The vendor-supplied WATERGATE pulse sequence was used to suppress the water signal in the STD spectrum. The on-resonance and off-resonance pulse sequences were subtracted internally. A total of 16,384 transients were collected for each STD experiment with a 1 second delay between acquisitions, 6000 Hz spectral width, and 1.3 second acquisition time.

p38β [7] = biological target: T2, p38β; test: STD-NMR, binding to p38β; conditions: 200 μM UM101, 5 μM p38 protein
Description: as §1

mutated p38α = biological target: T5, mutated p38α (Homo sapiens, UniProt Q16539, H107T/K165R/L108F/R49K); test: STD-NMR, binding to mutated p38α; conditions: 200 μM UM101, 5 μM p38 protein
T5 construct: made in house; host or cells: E. coli BL21
T5 sequence (Q16539 whole entry R49K/H107T/L108F/K165R): as the sequence (Q16539 whole entry R49K/H107T/L108F/K165R) above
Description: as §1

[8] = tested on: LPS/hyperthermia-induced ALI in CD1 mice; test: Mouse i.t. LPS/FRH-induced acute lung injury model; conditions: for reduction of lavage neutrophil content vs. DMSO-treated controls: mouse LPS/hyperthermia ALI, 24 h

T1 sequence (Q16539 whole entry): as the sequence (Q16539 whole entry R49K/H107T/L108F/K165R) above, with K49R, T107H, F108L, R165K counted along it
Chain of ERK2 (P28482 whole entry, species assumed): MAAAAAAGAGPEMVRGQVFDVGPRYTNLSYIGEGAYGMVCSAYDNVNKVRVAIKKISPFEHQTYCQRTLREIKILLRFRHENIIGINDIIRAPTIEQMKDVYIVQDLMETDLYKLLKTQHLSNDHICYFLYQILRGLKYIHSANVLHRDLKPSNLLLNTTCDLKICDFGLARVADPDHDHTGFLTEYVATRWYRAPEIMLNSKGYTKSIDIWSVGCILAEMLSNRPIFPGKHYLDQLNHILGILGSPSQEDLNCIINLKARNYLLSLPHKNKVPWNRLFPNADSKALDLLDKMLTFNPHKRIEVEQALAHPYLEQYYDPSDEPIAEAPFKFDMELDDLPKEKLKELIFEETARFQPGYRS

Structure (SMILES): O=C(Nc1ccc(CN2CCS(=O)(=O)CC2)cc1)c1ccc(Cl)cc1 [UM101, 4-chloro-N-{4-[(1,1-dioxo-1 lambda˜6˜,4-thiazinan-4-yl)methyl]phenyl}benzamide]
- ΔTm at 100 µM ([1]; 100 μM, change in melting temperature relative to DMSO control in DSF assay, read-out: p38α ΔTm (° C.) @100 μM): 0.667 °C
- stabilization of p38α in DSF (binding), in words ([1]; DSF melting temperature, concentration series): concentration-dependent increase in melting temperature of p38α; also recorded: only stabilized p38α
- ΔTm at 100 µM ([1]; added at 100 μM, DSF, read-out: increase in melting temperature of p38α): ~0.7 °C
- ΔTm at 100 µM (ERK2; 100 μM, change in melting temperature relative to DMSO control in DSF assay): 0.0175 °C
- stabilization of ERK2 in DSF (binding), in words (ERK2; DSF, test compounds at 10-100 μM): not ERK2
- stabilization of p38β in DSF (binding), in words (p38β [2]): not p38β; also recorded: only stabilized p38α
- binding to p38α mutant with four of ten target pocket amino acids substituted, in words [3]: abrogated UM101 binding; also recorded: no UM101-binding
- reduction of TNFα/hyperthermia-induced permeability increase (HMVECL monolayers; 10 μM): 74%
- reduction of TNFα/hyperthermia-induced permeability increase (HMVECL monolayers; 25 μM): 89%
- reduction of TNFα/hyperthermia-induced permeability increase (HMVECL monolayers; 100 μM): > 100%
- endothelial barrier stabilization compared with SB203580, in words (HMVECL monolayers; HMVECL barrier assays (FIG. 2a, 2b)): more effectively stabilized endothelial barriers than SB203580
- reduction of hyperthermia-augmented neutrophil TEM ([4]; 10 μM): 95%
- reduction of hyperthermia-augmented neutrophil TEM ([4]; 25 μM): less than baseline levels
- reduction of hyperthermia-augmented neutrophil TEM ([4]; 50 μM): less than baseline levels
- toxicity in LDH release and MTS assays (HMVECLs): Neither compound was toxic
- LPS-stimulated genes of the array (16) whose expression was inhibited, in words [5]: inhibited expression of all SB203580-inhibited genes except TNFSF9
- anisomycin-stimulated phosphorylation of MK2, in words [6]: partial inhibition of MK2 phosphorylation
- anisomycin-stimulated phosphorylation of Stat-1, in words [6]: reduced
- anisomycin-stimulated phosphorylation of MK2, in words ([6]; listed as UM1010): reduced
- interaction with p38α in STD-NMR, in words (p38α): confirmed specific UM101 binding to p38α; also recorded: protons in both aromatic rings of UM101 interact with p38α
- interaction with p38β in STD-NMR, in words (p38β [7]): much weaker
- interaction with mutated p38α in STD-NMR, in words (mutated p38α): much weaker
- reduction of lavage neutrophil content vs. DMSO-treated controls ([8]; 100 μg i.p.): 44.4%
- reduction of lavage neutrophil content vs. DMSO-treated controls ([8]; 300 μg i.p.): 49.5%
- reduction of lavage neutrophil content vs. DMSO-treated controls ([8]; 500 μg i.p.): 55.3%
- reduction of lavage neutrophil content vs. DMSO-treated controls ([8]; 1000 μg i.p.): 54%
- tolerability and potency compared with SB203580 in experimental ALI, in words ([8]; mouse LPS/FRH-induced ALI): well tolerated and more potent than SB203580 in mitigating experimental ALI; also recorded: more potent than SB203580 in reducing neutrophil and protein accumulation in BAL
- mice that died within 24 h ([8]; single i.p. injection of 100-1000 μg UM101, 1000 μg UM60 or 1000 μg SB203580, 30 min before i.t. 50 μg LPS and hyperthermia): All sixteen UM101-pretreated mice survived
